Experimental findings from patent publication US8822467B2 (Ligand Pharmaceuticals Inc., priority 2009, dated 2014) are described below.

The test concerns the target T1, human CRTH2 (Homo sapiens, UniProt Q9Y5Y4).
T1 construct: expressed in transfected cells
T1 sequence (Q9Y5Y4 1-395): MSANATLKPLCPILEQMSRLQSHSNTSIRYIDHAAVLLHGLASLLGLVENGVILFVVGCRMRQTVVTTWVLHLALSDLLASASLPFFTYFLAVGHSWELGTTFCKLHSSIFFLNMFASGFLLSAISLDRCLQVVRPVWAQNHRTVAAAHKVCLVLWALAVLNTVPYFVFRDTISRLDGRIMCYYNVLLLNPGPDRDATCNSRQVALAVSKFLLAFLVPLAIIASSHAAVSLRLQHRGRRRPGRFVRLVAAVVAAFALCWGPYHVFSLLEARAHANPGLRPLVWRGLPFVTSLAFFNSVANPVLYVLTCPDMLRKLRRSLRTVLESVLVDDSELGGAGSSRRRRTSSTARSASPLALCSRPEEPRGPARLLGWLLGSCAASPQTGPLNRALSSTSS
Briefly: [35S]GTPγS binding assay (SPA) on membranes from CHO-K1 cells stably expressing human CRTH2, stimulated with 60 nM DHK-PGD2. Type of test: biochemical. Conditions: read-out: CRTH2 hGTPγS IC50. In a few lines:
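Read-out is scintillation proximity: bound [35S]GTPγS (500 pM, with 10 μM GDP) was counted 4 h after centrifuging a 2 h ambient-temperature incubation. Reactions held 4 μg human CRTH2 CHO-K1 membrane protein, 60 nM DHK-PGD2 agonist and test compounds at increasing concentrations. Buffer: 20 mM HEPES pH 7.4, 10 mM MgCl2, 300 mM NaCl, 0.2% BSA, 1% DMSO.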
(GTPγS resists hydrolysis and so accumulates on activated G proteins.)

Where [1] appears, read: membranes of CHO-K1 cells expressing human CRTH2, 60 nM DHK-PGD2, Table 1.

Molecules are shown by their SMILES. Like-named read-outs stand apart in the source and are kept apart here.

As usually defined, the IC50 is the point on the concentration scale where inhibition reaches its midpoint. `CN(Cc1ccc(OCC(=O)O)c(-c2cccc3cnccc23)c1)S(=O)(=O)c1ccc(F)cc1` [Example 185, 2-(isoquinolin-5-yl)-4-((4-fluoro-N-methylphenylsulfonamido)methyl)phenoxyacetic acid]: the IC50 (potency class symbols, Table 2) lay in the range of 1000 to 10000 nM. `CN(Cc1ccc(OCC(=O)O)c(-c2cnn(C)c2)c1)S(=O)(=O)c1ccc(F)cc1` [Example 186, 2-(1-methyl-1H-pyrazol-4-yl)-4-((4-fluoro-N-methylphenylsulfonamido)methyl)phenoxyacetic acid]: under “potency class symbols, Table 2”, the IC50 lay within 1000 to 10000 nM. On to `CN(Cc1ccc(OCC(=O)O)c(-c2ccc3nonc3c2)c1)S(=O)(=O)c1ccc(F)cc1` [Example 187, 2-(5-benzo[c][1,2,5]oxadiazolyl)-4-((4-fluoro-N-methylphenylsulfonamido)methyl)phenoxyacetic acid], for which the IC50 is, setting by setting: under setting [1], 19 nM; (potency class symbols, Table 2) less than 100 nM.

As for `CN(Cc1ccc(OCC(=O)O)c(-c2ccc(C#N)s2)c1)S(=O)(=O)c1ccc(F)cc1` [Example 188, 2-(2-cyanothiophen-5-yl)-4-((4-fluoro-N-methylphenylsulfonamido)methyl)phenoxyacetic acid], the IC50 (potency class symbols, Table 2) is less than 100 nM. As to `COc1ccc(S(=O)(=O)N(C)Cc2ccc(OCC(=O)O)c(-c3cc(F)cc(F)c3)c2)cc1F` [Example 189, 2-(3,5-difluorophenyl)-4-((3-fluoro-4-methoxy-N-methylphenylsulfonamido)methyl)phenoxyacetic acid], the IC50 (potency class symbols, Table 2) was less than 100 nM. As for `CN(Cc1ccc(OCC(=O)O)c(-c2cc(F)cc(C#N)c2)c1)S(=O)(=O)c1cccs1` [Example 190, 2-(3-cyano-5-fluorophenyl)-4-((N-methylthiophene-2-sulfonamido)methyl)phenoxyacetic acid], the IC50 (potency class symbols, Table 2) was less than 100 nM.

Consider `CN(Cc1ccc(OCC(=O)O)c(-c2cc(F)cc(C#N)c2)c1)S(=O)(=O)c1ccc(Cl)s1` [Example 191, 2-(3-cyano-5-fluorophenyl)-4-((2-chloro-N-methylthiophene-5-sulfonamido)methyl)phenoxyacetic acid], for which, under “potency class symbols, Table 2”, the IC50 is less than 100 nM. In the case of `CN(Cc1ccc(OCC(=O)O)c(-c2cc(F)cc(C#N)c2)c1)S(=O)(=O)c1cc(Cl)c(Cl)s1` [Example 192, 2-(3-cyano-5-fluorophenyl)-4-((2,3-dichloro-N-methylthiophene-5-sulfonamido)methyl)phenoxyacetic acid], the IC50 runs as follows: under setting [1], 0.2 nM; (potency class symbols, Table 2) less than 100 nM. For `N#Cc1cc(F)cc(-c2cc(CNS(=O)(=O)c3ccc(F)c(Cl)c3)ccc2OCC(=O)O)c1` [Example 193, 2-(3-cyano-5-fluorophenyl)-4-((3-chloro-4-fluorophenylsulfonamido)methyl)phenoxyacetic acid], the IC50 (potency class symbols, Table 2) is less than 100 nM. Turning to `N#Cc1cc(F)cc(-c2cc(CNS(=O)(=O)c3ccc(F)c(F)c3)ccc2OCC(=O)O)c1` [Example 194, 2-(3-cyano-5-fluorophenyl)-4-((3,4-difluorophenylsulfonamido)methyl)phenoxyacetic acid], the IC50 under setting [1] was found to be 15 nM and the IC50 (potency class symbols, Table 2) was less than 100 nM. On to `N#Cc1cc(F)cc(-c2cc(CNS(=O)(=O)c3ccc(F)cc3)ccc2OCC(=O)O)c1` [Example 195, 2-(3-cyano-5-fluorophenyl)-4-((4-fluorophenylsulfonamido)methyl)phenoxyacetic acid], for which the IC50 (potency class symbols, Table 2) was less than 100 nM.

As to `COc1ccc(S(=O)(=O)NCc2ccc(OCC(=O)O)c(-c3cc(F)cc(C#N)c3)c2)cc1F` [Example 196, 2-(3-cyano-5-fluorophenyl)-4-((3-fluoro-4-methoxyphenylsulfonamido)methyl)phenoxyacetic acid], the IC50 is, setting by setting: under setting [1], 0.7 nM; (potency class symbols, Table 2) less than 100 nM.

Take `COc1ccc(S(=O)(=O)N(C)Cc2cc(-c3cc(F)cc(C#N)c3)c(OCC(=O)O)cc2F)cc1F` [Example 197, 2-(3-cyano-5-fluorophenyl)-(5-fluoro-4-((3-fluoro-4-methoxy-N-methylphenylsulfonamido)methyl)phenoxy)acetic acid]: the IC50 under setting [1] was determined as 0.6 nM and the half-maximal inhibitory concentration (IC50) (potency class symbols, Table 2) is less than 100 nM. Regarding `CN(Cc1ccc(OCC(=O)O)c(-c2cc(Cl)cc(C#N)c2)c1)S(=O)(=O)c1ccc(F)cc1` [Example 207, 2-(3-cyano-5-chloro-phenyl)-4-((4-fluoro-N-methylphenylsulfonamido)methyl)phenoxyacetic acid], the IC50 (potency class symbols, Table 2) was less than 100 nM. Take `CN(Cc1cc(-c2cc(F)cc(C#N)c2)c(OCC(=O)O)cc1F)S(=O)(=O)c1ccc(F)cc1` [Example 208, 2-(3-cyano-5-fluoro-phenyl)-4-((4-fluoro-N-methylphenylsulfonamido)methyl)-5-fluorophenoxyacetic acid]: the IC50 (potency class symbols, Table 2) was less than 100 nM.

As for `CN(Cc1cc(-c2cc(F)cc(C#N)c2)c(OCC(=O)O)cc1F)S(=O)(=O)c1ccc(F)c(Cl)c1` [Example 209, 2-(3-cyano-5-fluoro-phenyl)-4-((3-chloro-4-fluoro-N-methylphenylsulfonamido)methyl)-5-fluorophenoxyacetic acid], the IC50 (potency class symbols, Table 2) is less than 100 nM. Take `CN(Cc1cc(-c2cc(F)cc(C#N)c2)c(OCC(=O)O)cc1F)S(=O)(=O)c1cccc(Cl)c1` [Example 210, 2-(3-cyano-5-fluoro-phenyl)-4-((3-chloro-N-methylphenylsulfonamido)methyl)-5-fluorophenoxyacetic acid]: for the setting “potency class symbols, Table 2”, the IC50 was less than 100 nM. On the same count and under the same terms, the figure for `CN(Cc1cc(-c2cc(F)cc(C#N)c2)c(OCC(=O)O)cc1F)S(=O)(=O)c1ccc(Cl)c(Cl)c1` [Example 211, 2-(3-cyano-5-fluoro-phenyl)-4-((3,4-dichloro-N-methylphenylsulfonamido)methyl)-5-fluorophenoxyacetic acid] is less than 100 nM. The same measure, in the same setting: the figure for `CN(Cc1ccc(OCC(=O)O)c(-c2ccc3ccncc3c2)c1)S(=O)(=O)c1ccc(F)cc1` [Example 212, 2-(isoquinolin-7-yl)-4-((4-fluoro-N-methylphenylsulfonamido)methyl)phenoxyacetic acid] is 100 to 1000 nM; for `CN(Cc1cc(-c2cc(F)cc(C#N)c2)c(OCC(=O)O)cc1Cl)S(=O)(=O)c1ccc(F)cc1` [Example 213, 2-(3-cyano-5-fluoro-phenyl)-4-((4-fluoro-N-methylphenylsulfonamido)methyl)-5-chlorophenoxyacetic acid] it is less than 100 nM.
